Results on eight compounds are retold here after patent US4246282A, “ω-Dialkylalkanoic acid derivatives used to induce antianoxic activity” (Labaz, priority 1979, dated 1981).

A short description of data set [1]: β-Mercaptopropionic acid seizure (protection against the tonic seizure). The class given is in vivo, mice. To be noted: Mus musculus, 0.25 h. On the procedure: β-Mercaptopropionic acid is an inhibitor of glutamate decarboxylase (G.A.D.), an enzyme which catalyses the transformation of glutamate into γ-aminobutyric acid (GABA). As a consequent of this, a decrease in the GABA lever occurs together with generalized tonico-clonic seizures 3 to 4 minutes after administration.
In the present test, β-mercaptopropionic acid was administered intraperitoneally to batches of 10 male mice, at a dose of 70 mg/kg, 30 minutes after oral administration of a dose of the compound to be studied. The percentage of animals protected against the tonic seizure was registered 15 minutes after administration of the β-mercaptopropionicacid.

A short description of data set [2]: Pentylenetetrazol seizure. It is filed as in vivo, mice. The note with it: Mus musculus, 0.25 h.
The nature of data set [3]: rota rod test (neurotoxicity, coordination of movements on a turning rod). On the technique in general: Falling from the rotarod earlier than controls is read as motor impairment.
Protocol: This test enables the animal's ability to coordinate its movements on a turning rod to be evaluated. […] (a) 15 min. after administration of 500 mg/kg by oral route:
Data set [4] is described as follows: Anoxia in confined space (period of survival). The class given is in vivo, mice. On the procedure: Batches of 15 male mice were treated with a dose of a compound to be studied. After that, each animal was placed in a hermetically sealed box of 200 cm^3. The animal was considered to be dead when it had stopped breathing.
The increase in the period of survival was then noted in % in comparison with the controls. […]

Setting [5] is: 15 min. after administration of 500 mg/kg by oral route.
[6] abbreviates: 30 min. after administration of 500 mg/kg by oral route.
The mark [7] stands for this setting: 30 min. after administration of 100 mg/kg by intraperitoneal route.
[8] abbreviates: 15 min. after administration of 100 mg/kg by intraperitoneal route.

Usually ED50 stands for the dose at which the effect has come halfway, by size or by number of responders. Take `CCCC(CCC)CC(=O)[O-].[Na+]`: the results for the ED50 in data set [1] (po) and in data set [2] (po) were 168 mg/kg and 95 mg/kg, respectively. Further, the “% of failures” value in data set [3] (setting [5]) and in data set [3] (setting [6]) was 30% in each case.

On to `CCCC(CCC)CC(N)=O` [3-n-propyl-hexanamide, 3-n-Propyl-hexanamide], for which the “% of failures” value in data set [3] (setting [5]) was determined as 30%; in data set [3] (setting [6]) it was 10%.

Take `CCCC(CCC)CCCC(N)=O` [5-n-propyl-octanamide, 5-n-Propyl-octanamide]: the “% of failures” value in data set [3] (setting [5]) was 0%; in data set [3] (setting [7]), 50%.

Consider `CCCC(CCC)CCCC(=O)O` [ONa, n = 2], for which the ED50 in data set [1] (male mice, oral, 30 min before β-mercaptopropionic acid 70 mg/kg i.p., registered 15 minutes after, read-out: ED50) was 273 mg/kg. Moreover, the “% of failures” value is given as 20% in data set [3] (setting [5]) and 100% in data set [3] (setting [7]).

As to `CCCC(CCC)C(=O)[O-].[Na+]` [sodium di-n-propylacetate], in data set [1] (po, an other comparative test, read-out: ED50), the ED50 was determined as 175 mg/kg. Besides, in data set [4] (200 mg/kg intraperitoneal), the “increase in survival time” value was found to be 32%.

Regarding `CCCC(CCC)CCC(N)=O` [4-n-propyl-heptanamide, 4-n-Propyl-heptanamide], in data set [3] (setting [8]), the “% of failures” value is recorded as 0%.

On to `CCCC(CCC)C(N)=O` [di-n-propylacetamide], for which the ED50 in data set [2] (mice, oral route, registered 15 minutes after pentylenetetrazol, read-out: ED50) stood at 46 mg/kg. For the same compound, the “increase in survival time” value in data set [4] (50 mg/kg intraperitoneal) is 12%. For the same compound, the “% of failures” value in data set [3] (15 minutes after administration of 170 mg/kg by oral route) is 50%.

Turning to `CCCC(CCC)CCC(=O)O` [ONa, n = 1], the “% of failures” value in data set [3] (setting [8]) worked out at 30%.
